Values quoted from earlier work, collected in PMC11477967, “Review of the Structural Characteristics and Biological Activities of Tricholoma Secondary Metabolites (2018–2023)” (Molecules, 2024).
Like-named read-outs stand apart in the source and are kept apart here.

Columns and labels:
B. subtilis = system: B. subtilis; set-up: method as in PMID 26186257
bacteria = system: bacteria; set-up: method as in PMID 32534274, PMID 26186257, PMID 34604687, PMID 28794307; conditions: Table 1 summary
human tumor cell lines = system: human tumor cell lines; set-up: method as in PMID 29758519, PMID 32534274, PMID 26186257; conditions: Table 1 summary
S. epidermidis [1] = system: S. epidermidis; set-up: method as in PMID 26186257
MCF-7 [2] = system: MCF-7
S. aureus [3] = system: S. aureus; set-up: method as in PMID 26186257
E. coli [4] = system: E. coli; set-up: method as in PMID 26186257
Pseudomonas aeruginosa = system: Pseudomonas aeruginosa; set-up: method as in PMID 26186257
A-549 [5] = system: A-549
S. epidermidis [6] = system: S. epidermidis; set-up: method as in PMID 28794307
Bacillus subtilis = system: Bacillus subtilis; set-up: method as in PMID 28794307
S. aureus [7] = system: S. aureus; set-up: method as in PMID 28794307
E. coli [8] = system: E. coli; set-up: method as in PMID 28794307
MCF-7 [9] = system: MCF-7; set-up: method as in doi:10.1177/1934578X1801300901
Hep G2 [10] = system: Hep G2; set-up: method as in doi:10.1177/1934578X1801300901; conditions: said to surpass shikonin
WISH = system: WISH; set-up: method as in doi:10.1177/1934578X1801300901
human cancer cell lines = conditions: for Bioactivities: Cytotoxic against human cancer cell lines: Table 1 summary; for cytotoxicity rank: among 55, 56, 58, 60, 61, cell line not specified
Caki-1 [11] = system: Caki-1; set-up: method as in doi:10.1177/1934578X1801300901
A549 = system: A549; set-up: method as in doi:10.1177/1934578X1801300901; conditions: said to surpass shikonin
[12] = set-up: method as in PMID 36480815; conditions: Table 1 summary
[13] = set-up: method as in doi:10.1016/0040-4039(96)01329-9; conditions: solutions containing trace inorganic acids
Hep G2 [14] = system: Hep G2; set-up: method as in PMID 37175274
Caki-1 [15] = system: Caki-1; set-up: method as in PMID 37175274
A-549 [16] = system: A-549; set-up: method as in PMID 37175274
MCF-7 [17] = system: MCF-7; set-up: method as in PMID 37175274
HeLa = system: HeLa; set-up: method as in PMID 33449279

SMILES | antiproliferative effects (MCF-7 [9]) | antiproliferative effects (Hep G2 [10]) | antiproliferative effects (WISH) | Bioactivities: Cytotoxic against human cancer cell lines (human cancer cell lines) | antiproliferative effects (Caki-1 [11]) | antiproliferative effects (A549) | inhibitory effects (Hep G2 [14]) | inhibitory effects (Caki-1 [15]) | inhibitory effects (A-549 [16]) | inhibitory effects (MCF-7 [17]) | further results
CC(C)C(C)C=CC(C)C1CCC2C(=CC(=O)OC3(C)CCC=CC3=O)C(=O)CCC21C (stereo not shown) [Compound 40, chaxine C] |  |  |  |  |  |  |  |  |  |  | antibacterial activity (B. subtilis): more significant inhibitory effect; Bioactivities: Antibacterial activity (bacteria): Antibacterial activity; Bioactivities: Anti-cancer activity (human tumor cell lines): Anti-cancer activity; antibacterial activity (S. epidermidis [1]): antibacterial activity; selective cytotoxicity (MCF-7 [2]): selective toxicity; antibacterial activity (S. aureus [3]): more significant inhibitory effect; antibacterial activity (E. coli [4]): antibacterial activity; antibacterial activity (Pseudomonas aeruginosa): antibacterial activity; IC50 (A-549 [5]): < 10 µM; selective cytotoxicity (A-549 [5]): selective toxicity
C=CC(O)CCCCC (stereo not shown) [Compound 93, 1-octen-3-ol] |  |  |  |  |  |  |  |  |  |  | Bioactivities: Antibacterial activity (bacteria): Antibacterial activity; antibacterial activity (S. epidermidis [6]): strong antibacterial activity; antibacterial activity (Bacillus subtilis): strong antibacterial activity; antibacterial activity (S. aureus [7]): strong antibacterial activity; antibacterial activity (E. coli [8]): strong antibacterial activity
C=C1CCC(CCC2CCC3(OC2)OC2(O)CCC3(C)OC2(C)C)C(C)(C)C1C(O)C=C1C(=O)OCC1O (stereo not shown) [Compound 58, saponaceolide C] | strong antiproliferative effects | strong antiproliferative effects | strong antiproliferative effects | Cytotoxic against human cancer cell lines | strong antiproliferative effects | strong antiproliferative effects |  |  |  |  | 
CC(C)C(C)/C=C/[C@@H](C)C1CCC2C3=C[C@@H](O)[C@@]45C[C@@H](O)CC[C@]4(C)[C@]3(CC[C@@]21C)O5 (stereo partly shown) [Compound 51, anatoluin B] |  |  |  |  |  |  |  |  |  |  | cytotoxic activity (H1299): selectively inhibited; cytotoxic activity (human cancer cell lines): good cytotoxic activity; Bioactivities: Antioxidant activity [12]: Antioxidant activity; cytotoxic activity (MCF7): selectively inhibited; toxicity to normal or healthy cell lines (L929): almost no toxicity
C=C(C#CC1=CC(OC(C)=O)CC(OC(=O)C(C)=CCCC(=C)C#CC2=CC(OC(C)=O)C3OC3C2=O)C1=O)CCC=C(C)C(=O)O (stereo not shown) [Compound 79, tricholomenyn C] |  |  |  |  |  |  |  |  |  |  | stability [13]: easily decomposes
C=C1CCC(CCC2CCC3(OC2)OC2(O)CCC3(C)OC2(C)C)C(C)(C)C1CC=C1CCOC1=O (stereo not shown) [Compound 57, saponaceolide B] |  |  |  | Cytotoxic against human cancer cell lines |  |  | notable inhibitory effects | notable inhibitory effects | notable inhibitory effects | notable inhibitory effects | 
CC(C)C(C)/C=C/C(C)C1CCC2C3=CC4OC45C[C@@H](O)CC[C@]5(C)C3CC[C@@]21C (stereo partly drawn) [Compound 52, 5α,6α-epoxy-ergosta-7,22-dien,3β-ol] |  |  |  |  |  |  |  |  |  |  | cytotoxic activity (H1299): selectively inhibited; Bioactivities: Antioxidant activity [12]: Antioxidant activity; cytotoxic activity (HT29): selectively inhibited; cytotoxic activity (MCF7): selectively inhibited; toxicity to normal or healthy cell lines (L929): almost no toxicity
C=C1CCC(CCC2CCC3(OC2)OC2(O)CCC3(C)OC2(C)C)C(C)(C)C1CC=C1C(=O)OCC1O (stereo not shown) [Compound 56, saponaceolide A] | strong antiproliferative effects | strong antiproliferative effects | strong antiproliferative effects | Cytotoxic against human cancer cell lines | strong antiproliferative effects | strong antiproliferative effects | notable inhibitory effects | notable inhibitory effects | notable inhibitory effects | notable inhibitory effects | cytotoxicity rank (human cancer cell lines): most significant cytotoxicity
C=C1CCC(CCC2CC=C(C3(C)CCC(=O)C(C)(C)O3)OC2)C(C)(C)C1CC=C1CCOC1=O (stereo not shown) [Compound 64, tricholopardin D] |  |  |  | Cytotoxic against human cancer cell lines |  |  |  |  |  |  | cytotoxicity (HeLa): cytotoxicity
C=C1CCC(CC=C2CCC3(OC2)OC2(O)CCC3(C)OC2(C)C)C(C)(C)C1C(O)C=C1CCOC1=O (stereo not shown) [Compound 55, saponaceolide T] | strong antiproliferative effects | strong antiproliferative effects | strong antiproliferative effects | Cytotoxic against human cancer cell lines | strong antiproliferative effects | strong antiproliferative effects |  |  |  |  | 
C=C1CCC(CC=C2CCC3(OC2)OC2(O)CCC3(C)OC2(C)C)C(C)(C)C1CC=C1C(=O)OCC1O (stereo not shown) [Compound 60, saponaceolide F] | strong antiproliferative effects | strong antiproliferative effects | strong antiproliferative effects | Cytotoxic against human cancer cell lines | strong antiproliferative effects | strong antiproliferative effects | notable inhibitory effects | notable inhibitory effects | notable inhibitory effects | notable inhibitory effects | cytotoxicity rank (human cancer cell lines): most significant cytotoxicity
C=C1CCC(CC=C2CCC3(OC2)OC2(O)CCC3(C)OC2(C)C)C(C)(C)C1CC=C1CCOC1=O (stereo not shown) [Compound 62, saponaceolide J] |  |  |  | Cytotoxic against human cancer cell lines |  |  | notable inhibitory effects | notable inhibitory effects | notable inhibitory effects | notable inhibitory effects | 
C=C1CCC(CCC2CCC3(OC2)OC2(O)CCC3(C)OC2(C)C)C(C)(C)C1C(O)C=C1CCOC1=O (stereo not shown) [Compound 61, saponaceolide H] | strong antiproliferative effects | strong antiproliferative effects | strong antiproliferative effects | Cytotoxic against human cancer cell lines | strong antiproliferative effects | strong antiproliferative effects |  |  |  |  | cytotoxicity rank (human cancer cell lines): most significant cytotoxicity
